We go through 10 compounds from patent US20250011311A1, “AMIDO HETEROAROMATIC COMPOUNDS” (AstraZeneca AB, priority 2022, published 2025).

Molecules are shown by their SMILES. Where two headings read alike, the source gives them in different places.

Data set [1] concerns the target recombinant 17bHSD13 (N2-K300) (Homo sapiens (Human), UniProt Q7Z5P4). In words: In Vitro 17bHSD13 Enzyme Assay. It is filed as biochemical. Conditions: 80 nM 17bHSD13, 0.5 mM NAD, 20 μM Estradiol, 2.5 h; estradiol to estrone by LC-MS/MS. In short, it runs like this: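 Human 17bHSD13 (N2-K300, 80 nM) with 0.5 mM NAD, 20 μM estradiol and varied compound in 50 mM Tris-Cl pH 7.4, 5 mM EDTA, 0.01% DDM. Estrone/(estrone+estradiol) ratio read by LC-MS/MS (APCI, positive MRM). Inhibition normalised to DMSO and a known-inhibitor control; IC50 from curve fit.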

The target of data set [2] is over expressed HSD17β13 in HEK293S cells (Homo sapiens (Human), UniProt Q7Z5P4). Briefly: In Vitro 17bHSD13 Cell Assay. It is filed as cell-based. In short, it runs like this: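 HEK293S cells overexpressing HSD17β13 convert estradiol to estrone; product read by LC-MS/MS (APCI, positive MRM) as AUC ratio estrone/(estrone+estradiol). Effect normalised between DMSO and maximal inhibition by a known inhibitor control; IC50 from curve fit.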
over expressed HSD17β13 in HEK293S cells, sequence (Q7Z5P4 20-300): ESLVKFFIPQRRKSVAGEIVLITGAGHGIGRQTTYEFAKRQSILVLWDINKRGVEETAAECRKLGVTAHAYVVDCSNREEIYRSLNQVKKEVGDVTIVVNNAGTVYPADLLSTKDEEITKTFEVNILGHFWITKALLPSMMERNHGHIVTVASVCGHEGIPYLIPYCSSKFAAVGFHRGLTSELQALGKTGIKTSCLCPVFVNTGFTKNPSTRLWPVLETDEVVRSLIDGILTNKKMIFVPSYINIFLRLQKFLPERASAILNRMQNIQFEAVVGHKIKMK

For data set [3], the target named is CYP2C9 (Homo sapiens (Human), UniProt P11712). Briefly: Assay B: Cytochrome P450 Inhibition 2C9.
CYP2C9, sequence (P11712 whole entry): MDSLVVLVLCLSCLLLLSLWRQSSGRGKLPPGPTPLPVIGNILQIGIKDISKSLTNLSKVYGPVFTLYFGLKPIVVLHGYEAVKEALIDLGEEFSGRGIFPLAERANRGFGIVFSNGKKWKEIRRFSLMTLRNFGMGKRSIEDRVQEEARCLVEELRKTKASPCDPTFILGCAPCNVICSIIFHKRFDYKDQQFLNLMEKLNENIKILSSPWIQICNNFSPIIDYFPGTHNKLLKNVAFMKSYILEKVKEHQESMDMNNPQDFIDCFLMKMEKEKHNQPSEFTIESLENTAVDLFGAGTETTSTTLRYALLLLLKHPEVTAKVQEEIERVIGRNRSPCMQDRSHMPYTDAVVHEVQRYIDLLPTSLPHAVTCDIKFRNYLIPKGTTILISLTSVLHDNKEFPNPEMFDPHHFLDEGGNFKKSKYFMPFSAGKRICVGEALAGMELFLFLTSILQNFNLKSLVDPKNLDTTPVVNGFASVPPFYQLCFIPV
Method: A fluorescence-based method in 96-well format was used to determine the inhibition of 2C9 (Crespi, C. L. et al., Microtiter plate assays for inhibition of human, drug-metabolizing cytochromes P450. Anal Biochem 1997, 248 (1), 188-190. DOI: 10.1006/abio.1997.2145, which is incorporated herein by reference). The recombinant human enzymes used were prepared in house, except for CYP2D6 (CYPEX LTD, Dundee, UK). Different coumarin substrates, biotransformed into fluorescent metabolites, were used as probes for each individual CYP. A fluorescence plate reader (SPECTRAMAX GEMINIXS, MOLECULAR DEVICES, Sunnyvale, California, USA) was used to measure the levels of metabolites formed. A dilution series of the test substrates was prepared at eight different concentrations. For each CYP, a mixture of the enzyme, corresponding coumarin substrate, potassium phosphate buffer pH 7.4 and water (concentrations and volumes were CYP-dependent) were added to each well in a black 96-well plate. The test substrates at different concentrations were added. After 10 min pre-incubation, the co-factor NADPH was added to initiate the reaction. After 20-50 min (CYP and substrate-dependent) the reaction was terminated by addition of trisbase/MeCN (20:80). The plates were transferred to the fluorescence plate reader where the wavelengths were set individually for the different coumarin substrates and their respective fluorescent metabolite. The responses were exported to Excel where the IC50 curves were plotted (percent inhibition versus concentration) and IC50 values calculated for each test substrate and enzyme using XL-fit.
In data set [4] the test system is human hepatocytes. In words: Assay A: Metabolic Stability in Human Hepatocytes. It is filed as in vitro ADME. To be noted: cryopreserved human hepatocytes, 10^6 viable cells/mL, 1 μM compound, 37° C. Here is the method: Assay A: Metabolic Stability in Human Hepatocytes
Hepatocyte metabolic stability was determined in accordance with the method described by Jacobson et al., An optimized automated assay for determination of metabolic stability using hepatocytes: assay validation, variance component analysis, and in vivo relevance. Assay Drug Dev Technol 2007, 5 (3), 403-415. DOI: 10.1089/adt.2007.059, which is incorporated herein by reference. Cryopreserved hepatocytes at a concentration of 10^6 viable cells/mL were used. After thawing, hepatocytes were incubated for 10 min to warm to 37° C. and test compounds, dissolved in acetonitrile, were added to give a final concentration of 1 μM. At 0.5, 5, 15, 30, 45, 60, 80, 100 and 120 min, the incubation system was mixed and 20 μL aliquots were transferred at each time point to wells in a separate plate filled with 80 μL MeCN to stop the reaction. The quenching plate was then vortexed followed by centrifugation, and supernatants were analyzed by LC-MS/MS. Peak areas were determined from extracted ion chromatograms, and the in vitro intrinsic clearance (in vitro CLint, in μL/min/10^6 cells) of parent compound was calculated from the slope in the regression analysis of the natural logarithm of parent concentration vs time curve.

The target in data set [5] is over expressed HSD17β9 in HEK293S cells (Homo sapiens (Human), UniProt Q92781). Briefly: In Vitro 17bHSD9 Cell Assay. It is filed as cell-based. In short, it runs like this: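 HEK293S cells overexpressing HSD17β9 were plated at 10K cells/well in DMEM + 10% FBS and cultured 18 h. Retinol-to-retinal conversion in media was quantified by LC-MS/MS (MRM) as retinal/(retinal + retinol). IC50 was fitted after normalisation to DMSO and full inhibition by a reference inhibitor.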
over expressed HSD17β9 in HEK293S cells, sequence (Q92781 whole entry): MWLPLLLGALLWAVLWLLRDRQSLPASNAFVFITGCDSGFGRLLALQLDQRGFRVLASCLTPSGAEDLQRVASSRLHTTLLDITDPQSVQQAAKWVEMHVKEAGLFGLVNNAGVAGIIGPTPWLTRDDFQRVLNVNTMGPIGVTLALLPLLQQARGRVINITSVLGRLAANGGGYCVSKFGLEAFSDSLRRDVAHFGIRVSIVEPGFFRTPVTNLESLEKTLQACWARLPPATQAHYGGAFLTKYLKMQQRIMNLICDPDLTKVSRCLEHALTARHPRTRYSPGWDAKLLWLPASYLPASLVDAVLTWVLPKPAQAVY

Data set [6] concerns the target recombinant 17bHSD4 (M1-N311) (Homo sapiens (Human), UniProt P51659). Briefly: In Vitro 17bHSD4 Enzyme Assay. It is filed as biochemical. To be noted: 40 nM 17bHSD4, 0.125 mM NAD, 15 μM Estradiol, 1.5 h; NADH fluorescence; read-out: 17HSD17b4 Enzyme assay IC50.
The target in data set [7] is human CB1 receptor expressed in transfected CHO cells (Homo sapiens (Human), UniProt P21554). In words: Assay C: CB1 Agonism Assay. It is filed as cell-based. Conditions: agonist activity, cAMP HTRF, read-out: Assay C: CB1 Hu CHO cAMP TRF Ag CR GMean EC50. The method, then: Assay C: CB1 Agonism Assay
human CB1 receptor expressed in transfected CHO cells, sequence (P21554 whole entry): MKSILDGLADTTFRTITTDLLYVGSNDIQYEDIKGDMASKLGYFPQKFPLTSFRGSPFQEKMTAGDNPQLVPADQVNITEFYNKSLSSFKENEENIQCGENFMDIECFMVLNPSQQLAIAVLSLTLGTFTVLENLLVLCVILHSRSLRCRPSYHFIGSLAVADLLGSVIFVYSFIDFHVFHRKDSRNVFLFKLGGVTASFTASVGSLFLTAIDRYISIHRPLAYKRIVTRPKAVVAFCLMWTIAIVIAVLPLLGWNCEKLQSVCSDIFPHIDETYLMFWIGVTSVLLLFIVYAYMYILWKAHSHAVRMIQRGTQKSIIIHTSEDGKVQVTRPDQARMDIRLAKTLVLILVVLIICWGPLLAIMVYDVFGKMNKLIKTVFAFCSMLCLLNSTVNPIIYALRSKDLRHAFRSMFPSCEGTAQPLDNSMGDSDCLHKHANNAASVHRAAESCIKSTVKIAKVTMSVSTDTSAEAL
Evaluation of the agonist activity of compounds at the human CB1 receptor expressed in transfected CHO cells, determined by measuring their effects on cAMP modulation using the HTRF detection method.
Thereafter, the adenylyl cyclase activator NKH 477 is added at a final concentration of 3 μM. Following 20 min incubation at 37° C., the cells are lysed and the fluorescence acceptor (D2-labeled cAMP) and fluorescence donor (anti-cAMP antibody labeled with europium cryptate) are added. After 60 min at room temperature, the fluorescence transfer is measured at gex=337 nm and gem=620 and 665 nm using a microplate reader (RUBYSTAR, BMG). The cAMP concentration is determined by dividing the signal measured at 665 nm by that measured at 620 nm (ratio). The results are expressed as a percent of the control response to 30 nM CP 55940. The standard reference agonist is CP 55940, which is tested in each experiment at several concentrations to generate a concentration-response curve from which its EC50 value is calculated.
Bibliographic reference Felder, C. C. et al., (1995), Comparison of the pharmacology and signal transduction of the human cannabinoid CB1 and CB2 receptors, Mol. Pharmacol., 48: 443, which is incorporated herein by reference.
In general terms: Time-resolved FRET reads energy transfer from a long-lived donor to a nearby acceptor.

The mark [8] stands for this setting: HEK293S cells over expressing HSD17β13, estradiol to estrone conversion, 18 h, LC-MS/MS, read-out: 17bHSD1713 Cell assay IC50.

recombinant 17bHSD13 (N2-K300), sequence (Q7Z5P4 2-300): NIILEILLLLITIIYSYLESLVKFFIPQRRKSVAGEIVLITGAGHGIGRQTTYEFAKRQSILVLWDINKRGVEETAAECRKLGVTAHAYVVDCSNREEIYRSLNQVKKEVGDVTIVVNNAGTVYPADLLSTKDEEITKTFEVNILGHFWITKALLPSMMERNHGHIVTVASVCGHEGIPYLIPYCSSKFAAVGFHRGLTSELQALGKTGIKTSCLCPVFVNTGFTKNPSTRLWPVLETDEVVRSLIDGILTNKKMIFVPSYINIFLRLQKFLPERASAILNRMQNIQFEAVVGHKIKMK
recombinant 17bHSD4 (M1-N311), sequence (P51659 1-311): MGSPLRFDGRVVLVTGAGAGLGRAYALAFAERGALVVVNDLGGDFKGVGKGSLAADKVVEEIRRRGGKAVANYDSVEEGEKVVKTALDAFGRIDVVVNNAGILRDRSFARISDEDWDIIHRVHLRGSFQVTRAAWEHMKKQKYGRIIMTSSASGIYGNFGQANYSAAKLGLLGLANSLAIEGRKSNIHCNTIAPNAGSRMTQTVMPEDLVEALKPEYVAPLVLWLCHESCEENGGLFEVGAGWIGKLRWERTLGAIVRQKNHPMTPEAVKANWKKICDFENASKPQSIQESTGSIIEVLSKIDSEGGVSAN

What is called IC50 is the concentration at which inhibition is half-maximal. `N#CC1(c2ccccc2)CCN(C(=O)c2noc(-c3cc(F)c(F)c(O)c3F)n2)CC1` [Example 80, 4-Phenyl-1-(5-(2,4,5-trifluoro-3-hydroxyphenyl)-1,2,4-oxadiazole-3-carbonyl)piperidine-4-carbonitrile]: the IC50 came to 111 nM in data set [1]; 460 nM in data set [2]; 3300 nM in data set [3]; 8200 nM in data set [5]; 21900 nM in data set [6]. Also, the “Assay A: Human Heps Met Clint GMean CLint (μl/min/1E6)” value in data set [4] came to 9.8 μl/min/1E6.
On to `O=C(c1nnc(-c2ccc(F)c(O)c2)o1)N1CCOC2(CCC2)C1` [Example 90, (5-(4-Fluoro-3-hydroxyphenyl)-1,3,4-oxadiazol-2-yl)(5-oxa-8-azaspiro[3.5]nonan-8-yl)methanone], for which the IC50 in data set [1] is 626 nM; in data set [2] (setting [8]), 1690 nM; in data set [3] it was > 30000 nM; in data set [6], > 50000 nM. Besides, the “Assay A: Human Heps Met Clint GMean CLint (μl/min/1E6)” value in data set [4] is >300 μl/min/1E6.
As for `N#Cc1ccc(C2CCN(C(=O)c3noc(-c4cc(F)c(F)c(O)c4F)n3)CC2)cc1` [Example 56, 4-(1-(5-(2,4,5-Trifluoro-3-hydroxyphenyl)-1,2,4-oxadiazole-3-carbonyl)piperidin-4-yl)benzonitrile], the IC50 in data set [1] was determined as 142 nM; in data set [2] (setting [8]) it was 1360 nM; in data set [3], 5100 nM; in data set [6], 23500 nM. Besides, in data set [4], the “Assay A: Human Heps Met Clint GMean CLint (μl/min/1E6)” value came out at 5.9 μl/min/1E6.
In the same order, the values of `N#Cc1ccc(N2CCN(C(=O)c3noc(-c4cc(F)c(F)c(O)c4F)n3)CC2)cc1` [Example 83, 4-(4-(5-(2,4,5-Trifluoro-3-hydroxyphenyl)-1,2,4-oxadiazole-3-carbonyl)piperazin-1-yl)benzonitrile] are 102 nM, 2880 nM, 6200 nM, 14400 nM and 11.8 μl/min/1E6.
For `O=C(c1noc(-c2cc(F)c(F)c(O)c2F)n1)N1CCC(OCc2ccccc2)C1` (stereo not shown) [Example 97, (3-(Benzyloxy)pyrrolidin-1-yl)(5-(2,4,5-trifluoro-3-hydroxyphenyl)-1,2,4-oxadiazol-3-yl)methanone], the IC50 in data set [1] stood at 122 nM; in data set [2] (setting [8]), 890 nM; in data set [3], 1800 nM; in data set [6], 26200 nM. The “Assay A: Human Heps Met Clint GMean CLint (μl/min/1E6)” value in data set [4] stood at 46.6 μl/min/1E6.
Regarding `N#Cc1c(C(=O)N2CCN(c3ccccn3)CC2)noc1-c1cc(F)c(F)c(O)c1F` [Example 15, 3-(4-(Pyridin-2-yl)piperazine-1-carbonyl)-5-(2,4,5-trifluoro-3-hydroxyphenyl)isoxazole-4-carbonitrile], the IC50 in data set [1] was 489 nM; in data set [2] (setting [8]), 970 nM; in data set [3], 2100 nM; in data set [6], 37700 nM. For the same compound, the “Assay A: Human Heps Met Clint GMean CLint (μl/min/1E6)” value in data set [4] came to 59.8 μl/min/1E6.
For the compound `O=C(c1noc(-c2cc(F)c(F)c(O)c2F)n1)N1CC(c2ccccc2)C1` [Example 60, (3-Phenylazetidin-1-yl)(5-(2,4,5-trifluoro-3-hydroxyphenyl)-1,2,4-oxadiazol-3-yl)methanone], the IC50 came out at 137 nM in data set [1], 2980 nM in data set [2] (setting [8]), 3900 nM in data set [3] and 11000 nM in data set [6]. Moreover, in data set [4], the “Assay A: Human Heps Met Clint GMean CLint (μl/min/1E6)” value is recorded as 13.8 μl/min/1E6.
In the case of `CC(C)(C)N(Cc1ccccn1)C(=O)c1noc(-c2cc(F)c(F)c(O)c2F)c1C#N` [Example 19, N-(tert-Butyl)-4-cyano-N-(pyridin-2-ylmethyl)-5-(2,4,5-trifluoro-3-hydroxyphenyl)isoxazole-3-carboxamide], the half-inhibitory concentration (IC50) in data set [1] is 108 nM; in data set [2] (setting [8]), 2010 nM; in data set [3] it was 1000 nM; in data set [6], 19600 nM. Further, the “Assay A: Human Heps Met Clint GMean CLint (μl/min/1E6)” value in data set [4] is listed as 4.3 μl/min/1E6.
Broadly, the EC50 is the concentration giving half of the maximal effect. `N#Cc1cccc(C2CN(C(=O)c3noc(-c4cc(F)c(F)c(O)c4F)n3)C2)c1` [Example 85, 3-(1-(5-(2,4,5-Trifluoro-3-hydroxyphenyl)-1,2,4-oxadiazole-3-carbonyl)azetidin-3-yl)benzonitrile]: the IC50 amounted to 317 nM in data set [1], 3380 nM in data set [2] (setting [8]), 3400 nM in data set [3] and 21700 nM in data set [6]. Further, the “Assay A: Human Heps Met Clint GMean CLint (μl/min/1E6)” value in data set [4] amounted to 14.1 μl/min/1E6. Besides, the EC50 in data set [7] came out at 9300 nM.
In the case of `O=C(c1noc(-c2cc(F)c(F)c(O)c2F)n1)N1CCN(c2ccccn2)CC1` [Example 58, (4-(Pyridin-2-yl)piperazin-1-yl)(5-(2,4,5-trifluoro-3-hydroxyphenyl)-1,2,4-oxadiazol-3-yl)methanone], the concentration for half-maximal inhibition (IC50) in data set [1] was 103 nM; in data set [2] (setting [8]) it was 1080 nM; in data set [3] it was 7300 nM; in data set [6], 20600 nM. In addition, the “Assay A: Human Heps Met Clint GMean CLint (μl/min/1E6)” value in data set [4] is on record as 24.6 μl/min/1E6.
